Measurements: article PMC9522516, “A Simple and Portable Personal Glucose Meter Method Combined with Molecular Docking for Screening of Lipase Inhibitors” (Evidence-based Complementary and Alternative Medicine : eCAM, 2022)

Target: T1, Lipase (Diutina rugosa, UniProt P20261)
T1 construct: gene LIP1
Test: lipase activity assay, personal glucose meter readout, % inhibition at […]
Format: biochemical

T1 sequence (P20261 16-549): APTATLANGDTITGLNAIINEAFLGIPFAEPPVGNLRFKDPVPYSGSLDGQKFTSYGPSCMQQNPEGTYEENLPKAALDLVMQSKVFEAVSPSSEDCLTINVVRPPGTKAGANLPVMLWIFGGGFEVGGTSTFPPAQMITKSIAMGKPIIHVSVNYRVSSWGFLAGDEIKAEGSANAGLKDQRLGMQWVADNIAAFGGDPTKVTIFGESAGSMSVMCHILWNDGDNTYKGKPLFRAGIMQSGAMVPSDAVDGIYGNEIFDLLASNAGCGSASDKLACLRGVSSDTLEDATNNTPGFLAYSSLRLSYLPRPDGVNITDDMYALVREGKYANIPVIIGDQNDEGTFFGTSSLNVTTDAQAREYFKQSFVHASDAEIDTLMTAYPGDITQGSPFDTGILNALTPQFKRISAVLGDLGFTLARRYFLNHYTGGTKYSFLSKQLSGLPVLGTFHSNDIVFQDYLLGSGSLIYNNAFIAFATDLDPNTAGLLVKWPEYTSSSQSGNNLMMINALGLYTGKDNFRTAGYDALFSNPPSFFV

SMILES | inhibition at 2000 µM
O=C(O[C@@H]1Cc2c(O)cc(O)cc2O[C@@H]1c1ccc(O)c(O)c1)c1cc(O)c(O)c(O)c1 [(−)-Epicatechin gallate] | 46.5 ± 2.2%
Oc1cc(O)c2c(c1)O[C@H](c1cc(O)c(O)c(O)c1)[C@H](O)C2 [(−)-Epigallocatechin] | 47.2 ± 1.6%
Oc1cc(O)c2c(c1)O[C@H](c1ccc(O)c(O)c1)[C@H](O)C2 [Epicatechin] | 42.8 ± 1.8%
O=C(/C=C/c1ccc(O)c(O)c1)O[C@H](Cc1ccc(O)c(O)c1)C(=O)O [Rosmarinic acid] | 39.3 ± 3%
